According to ChEMBL document CHEMBL5338818, “Discovery of the First Potent, Selective, and In Vivo Efficacious Polo-like Kinase 4 Proteolysis Targeting Chimera Degrader for the Treatment of TRIM37-Amplified Breast Cancer” (J Med Chem, 2023):
Active and inactive are the calls of the source. No cut-off for these calls is given here.

What was measured:
[1] = molecular target: T1, Protein cereblon/Serine/threonine-protein kinase PLK4 (Homo sapiens, UniProt O00444+Q96SW2); test: Protac activity at CRBN/PLK4 in human MCF7 cells at 10 uM by Western blot analysis; assay type: cell-based
CYP2D6 = test: Inhibition of CYP2D6 in human liver microsomes at 10 uM using quinidine as substrate preincubated for 10 mins followed by NADPH regenerating system addition and measured after 15 mins by LC-MS/MS analysis relative to control; assay type: ADME, Microsome; details: time 25 min
[2] = Stability in human plasma assessed as half life at 100 uM after 120 mins by LC-MS/MS analysis; assay type: ADME, cell-free
[3] = molecular target: T1, Protein cereblon/Serine/threonine-protein kinase PLK4; test: Protac activity at CRBN/PLK4 in human MCF7 cells at 1 to 10 nM by Western blot analysis; assay type: cell-based; details: dose 1-10 nM, time 6-72 hrs, TDE = time-dependent effect
MCF7 = test: Antiproliferative activity against human MCF7 cells incubated for 5 days by CCK-8 assay; details: MCF7, 120 h
[4] = molecular target: T2, Serine/threonine-protein kinase PLK4 (Homo sapiens, UniProt O00444); test: Inhibition of PLK4 (unknown origin) incubated for 1 hr in presence of kinase tracer 236 by FRET assay
T2 sequence (O00444 whole entry): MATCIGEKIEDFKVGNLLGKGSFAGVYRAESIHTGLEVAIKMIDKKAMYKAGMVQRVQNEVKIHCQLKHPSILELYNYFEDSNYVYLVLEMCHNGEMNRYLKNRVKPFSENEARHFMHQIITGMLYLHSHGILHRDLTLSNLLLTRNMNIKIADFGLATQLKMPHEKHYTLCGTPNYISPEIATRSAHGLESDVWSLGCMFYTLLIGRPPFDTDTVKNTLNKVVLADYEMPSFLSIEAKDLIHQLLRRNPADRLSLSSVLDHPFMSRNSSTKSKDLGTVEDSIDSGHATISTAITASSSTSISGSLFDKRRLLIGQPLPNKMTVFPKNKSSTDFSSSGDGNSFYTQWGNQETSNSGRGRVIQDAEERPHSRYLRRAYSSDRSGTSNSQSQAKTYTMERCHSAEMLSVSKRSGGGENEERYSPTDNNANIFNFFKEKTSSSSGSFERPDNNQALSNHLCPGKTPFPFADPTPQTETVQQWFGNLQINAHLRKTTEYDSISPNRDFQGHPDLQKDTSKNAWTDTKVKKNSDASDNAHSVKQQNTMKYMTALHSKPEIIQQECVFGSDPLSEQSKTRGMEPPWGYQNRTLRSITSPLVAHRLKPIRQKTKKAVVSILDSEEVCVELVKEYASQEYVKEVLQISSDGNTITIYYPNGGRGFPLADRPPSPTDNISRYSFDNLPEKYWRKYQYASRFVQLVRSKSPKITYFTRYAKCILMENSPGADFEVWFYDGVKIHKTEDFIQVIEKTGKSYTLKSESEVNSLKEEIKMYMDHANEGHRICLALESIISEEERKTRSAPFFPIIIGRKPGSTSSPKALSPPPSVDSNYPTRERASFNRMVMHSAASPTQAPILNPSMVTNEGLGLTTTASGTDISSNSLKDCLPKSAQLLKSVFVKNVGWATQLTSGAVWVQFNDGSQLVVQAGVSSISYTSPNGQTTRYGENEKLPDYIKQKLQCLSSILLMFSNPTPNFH

[5] = molecular target: T1, Protein cereblon/Serine/threonine-protein kinase PLK4; test: Protac activity at CRBN/PLK4 in human MCF7 cells at 0.1 uM incubated for 48 hrs by Western blot analysis; assay type: cell-based
[6] = molecular target: T1, Protein cereblon/Serine/threonine-protein kinase PLK4; test: Protac activity at CRBN/PLK4 in human MCF7 cells at 1 uM incubated for 48 hrs by Western blot analysis; assay type: cell-based
[7] = molecular target: T1, Protein cereblon/Serine/threonine-protein kinase PLK4; test: Protac activity at CRBN/PLK4 in human MCF7 cells at 10 uM incubated for 48 hrs by Western blot analysis; assay type: cell-based

T1 sequence (Q96SW2 whole entry, looked up, one chain of several): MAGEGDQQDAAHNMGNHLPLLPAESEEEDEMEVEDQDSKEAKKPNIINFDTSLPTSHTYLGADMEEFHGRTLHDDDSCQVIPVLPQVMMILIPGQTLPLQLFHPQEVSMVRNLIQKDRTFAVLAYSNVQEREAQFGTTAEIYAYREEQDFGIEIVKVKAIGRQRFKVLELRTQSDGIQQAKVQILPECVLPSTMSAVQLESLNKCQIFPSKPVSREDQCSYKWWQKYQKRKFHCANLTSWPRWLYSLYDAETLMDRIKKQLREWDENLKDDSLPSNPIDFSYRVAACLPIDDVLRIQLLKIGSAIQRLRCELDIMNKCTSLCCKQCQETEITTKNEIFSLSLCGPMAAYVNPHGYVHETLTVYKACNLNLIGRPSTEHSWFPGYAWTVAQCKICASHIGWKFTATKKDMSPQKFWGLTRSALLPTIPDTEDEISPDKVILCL

| SMILES | IC50 (MCF7) [nM] | IC50 [4] [nM] | Activity [5] [%] | Activity [6] [%] | Activity [7] [%] | also measured |
| --- | --- | --- | --- | --- | --- | --- |
| Cc1cc(Nc2nc(NCc3ccc(F)cc3F)nc3c2cnn3C2CCN(C(=O)C3CCN(c4ccc5c(c4)C(=O)N(C4CCC(=O)N(C)C4=O)C5=O)CC3)CC2)n[nH]1 (centres undefined) | – | – | – | – | – | Activity [1]: inactive |
| C=C[C@H]1C[N@@]2CC[C@H]1C[C@@H]2[C@@H](O)c1ccnc2ccc(OC)cc12 [QUINIDINE] | – | – | – | – | – | inhibition at 0.25 h, 10 µM (CYP2D6): 95.9% |
| CC(C)[N+](C)(CCOC(=O)C1c2ccccc2Oc2ccccc21)C(C)C.[Br-] [PROPANTHELINE BROMIDE] | – | – | – | – | – | half-life at 100 µM [2]: 19.8 min |
| Cc1cc(Nc2nc(NCc3ccc(F)cc3F)nc3c2cnn3C2CCN(C(=O)CCCOc3ccc4c(c3)C(=O)N(C3CCC(=O)NC3=O)C4=O)CC2)n[nH]1 (centres undefined) | 2150 | 1.5 | 44.6 | 53.1 | 65.8 | Activity [3]: Tde |
| Cc1cc(Nc2nc(NCc3ccc(F)cc3F)nc3c2cnn3C2CCN(C(=O)CCCCCCOc3ccc4c(c3)C(=O)N(C3CCC(=O)NC3=O)C4=O)CC2)n[nH]1 (centres undefined) | 220 | 9.1 | 31.7 | 55.3 | 68.9 | – |
